Experimental data taken from patent publication US20250353852A1, “COMPOUNDS AND COMPOSITIONS THAT INHIBIT PIKFYVE” (Kineta, Inc., priority 2021, published 2025).

How the values were obtained:
FAB1 TDP-43 yeast strain = assay: Propidium iodide viability assay, FAB1 TDP-43 control yeast strain; assay type: cell-based; conditions: for FAB1 TDP-43 (active/inactive): FAB1 TDP-43 yeast model
Description: (§1) Generation of TDP-43 yeast model expressing human PIKfyve. Human PIKFYVE (“entry clone”) was cloned into […] (“destination vector”) according to standard Gateway cloning protocols (Invitrogen, Life Technologies). The resulting pAG416GPD-PIKFYVE plasmids were amplified in E. coli and plasmid identity confirmed by restriction digest and Sanger sequencing. […]+) (FIG. 2). Transformed yeast were plated on solid agar plates with complete synthetic media lacking uracil (CSM-ura) and containing 2% glucose. Individual colonies harboring the control or PIKFYVE TDP-43 plasmids were recovered. A plasmid containing wild-type TDP-43 under the transcriptional control of the GAL1 promoter and containing the […] as a selectable marker was transformed into the […]-PIKFYVE yeast strain (FIG. 1). Transformed yeast were plated on CSM-ura containing 2% glucose and 200 μg/mL G418 after overnight recovery in media lacking antibiotic. Multiple independent isolates were further evaluated for cytotoxicity and TDP-43 expression levels. Viability Assay. A control yeast strain with the wild-type yeast FAB1 gene and TDP-43 (“FAB1 TDP-43”, carries empty pAG416 plasmid), and the “PIKFYVE TDP-43” yeast strain, were assessed for toxicity using a propidium iodide viability assay. Both yeast strains were transferred from solid CSM-ura/2% glucose agar plates into 3 mL of liquid CSM-ura/2% glucose media for 6-8 hours at 30° C. with aeration. Yeast cultures were then diluted to an optical density at 600 nm wavelength (OD600) of 0.005 in 3 mL of CSM-ura/2% raffinose and grown overnight at 30° C. with aeration to an OD600 of 0.3-0.8. Log-phase overnight cultures were diluted to OD600 of 0.005 in CSM-ura containing either 2% raffinose or galactose and 150 μL dispensed into each well of a flat bottom 96-well plates. Compounds formulated in 100% dimethyl sulfoxide (DMSO) were serially diluted in DMSO and 1.5 μL diluted compound transferred to the 96-well plates using a multichannel pipet. Wells containing DMSO alone were also evaluated as controls for compound effects. Tested concentrations ranged from 15 μM to 0.11 μM. Cultures were immediately mixed to ensure compound distribution and covered plates incubated at 30° C. for 24 hours in a stationary, humified incubator. Upon the completion of incubation, cultures were assayed for viability using propidium iodide (PI) to stain for dead/dying cells. A working solution of PI was made where, for each plate, 1 μL of 10 mM PI was added to 10 mL of CSM-ura (raffinose or galactose). […] The overnight 96-well assay plate was then mixed with a multichannel pipet and 50 μL transferred to the PI-containing plate. This plate was then incubated for 30 minutes at 30° C. in the dark. A benchtop flow cytometer (Miltenyi MACSquant) was then used to assess red fluorescence (B2 channel), forward scatter, and side scatter (with following settings: gentle mix, high flow rate, fast measurement, 10,000 events). Intensity histograms were then gated for “PI-positive” or “PI-negative” using the raffinose and galactose cultures treated with DMSO as controls. The DMSO controls for raffinose or galactose-containing cultures were used to determine the window of increased cell death and this difference set to 100. All compounds were similarly gated and then compared to this maximal window to establish the percent reduction in PI-positive cells.

[1] = system: PIKFYVE TDP-43 yeast strain; assay: Propidium iodide viability assay, PIKFYVE TDP-43 yeast strain; assay type: cell-based; conditions: for PIKfyve TDP-43 (active/inactive): PIKFYVE TDP-43 yeast model
Description: as §1

[2] = target: full-length human PIKFYVE (Homo sapiens (Human), UniProt Q9Y2I7, L932S/Q1183K/Q995L/S1033A/S696N/T998S); assay: PIKfyve biochemical assay (ADP-Glo Kinase assay, Carna Biosciences); conditions: class symbols
Sequence of full-length human PIKFYVE (Q9Y2I7 whole entry S696N/L932S/Q995L/T998S/S1033A/Q1183K, the tested form may be a part): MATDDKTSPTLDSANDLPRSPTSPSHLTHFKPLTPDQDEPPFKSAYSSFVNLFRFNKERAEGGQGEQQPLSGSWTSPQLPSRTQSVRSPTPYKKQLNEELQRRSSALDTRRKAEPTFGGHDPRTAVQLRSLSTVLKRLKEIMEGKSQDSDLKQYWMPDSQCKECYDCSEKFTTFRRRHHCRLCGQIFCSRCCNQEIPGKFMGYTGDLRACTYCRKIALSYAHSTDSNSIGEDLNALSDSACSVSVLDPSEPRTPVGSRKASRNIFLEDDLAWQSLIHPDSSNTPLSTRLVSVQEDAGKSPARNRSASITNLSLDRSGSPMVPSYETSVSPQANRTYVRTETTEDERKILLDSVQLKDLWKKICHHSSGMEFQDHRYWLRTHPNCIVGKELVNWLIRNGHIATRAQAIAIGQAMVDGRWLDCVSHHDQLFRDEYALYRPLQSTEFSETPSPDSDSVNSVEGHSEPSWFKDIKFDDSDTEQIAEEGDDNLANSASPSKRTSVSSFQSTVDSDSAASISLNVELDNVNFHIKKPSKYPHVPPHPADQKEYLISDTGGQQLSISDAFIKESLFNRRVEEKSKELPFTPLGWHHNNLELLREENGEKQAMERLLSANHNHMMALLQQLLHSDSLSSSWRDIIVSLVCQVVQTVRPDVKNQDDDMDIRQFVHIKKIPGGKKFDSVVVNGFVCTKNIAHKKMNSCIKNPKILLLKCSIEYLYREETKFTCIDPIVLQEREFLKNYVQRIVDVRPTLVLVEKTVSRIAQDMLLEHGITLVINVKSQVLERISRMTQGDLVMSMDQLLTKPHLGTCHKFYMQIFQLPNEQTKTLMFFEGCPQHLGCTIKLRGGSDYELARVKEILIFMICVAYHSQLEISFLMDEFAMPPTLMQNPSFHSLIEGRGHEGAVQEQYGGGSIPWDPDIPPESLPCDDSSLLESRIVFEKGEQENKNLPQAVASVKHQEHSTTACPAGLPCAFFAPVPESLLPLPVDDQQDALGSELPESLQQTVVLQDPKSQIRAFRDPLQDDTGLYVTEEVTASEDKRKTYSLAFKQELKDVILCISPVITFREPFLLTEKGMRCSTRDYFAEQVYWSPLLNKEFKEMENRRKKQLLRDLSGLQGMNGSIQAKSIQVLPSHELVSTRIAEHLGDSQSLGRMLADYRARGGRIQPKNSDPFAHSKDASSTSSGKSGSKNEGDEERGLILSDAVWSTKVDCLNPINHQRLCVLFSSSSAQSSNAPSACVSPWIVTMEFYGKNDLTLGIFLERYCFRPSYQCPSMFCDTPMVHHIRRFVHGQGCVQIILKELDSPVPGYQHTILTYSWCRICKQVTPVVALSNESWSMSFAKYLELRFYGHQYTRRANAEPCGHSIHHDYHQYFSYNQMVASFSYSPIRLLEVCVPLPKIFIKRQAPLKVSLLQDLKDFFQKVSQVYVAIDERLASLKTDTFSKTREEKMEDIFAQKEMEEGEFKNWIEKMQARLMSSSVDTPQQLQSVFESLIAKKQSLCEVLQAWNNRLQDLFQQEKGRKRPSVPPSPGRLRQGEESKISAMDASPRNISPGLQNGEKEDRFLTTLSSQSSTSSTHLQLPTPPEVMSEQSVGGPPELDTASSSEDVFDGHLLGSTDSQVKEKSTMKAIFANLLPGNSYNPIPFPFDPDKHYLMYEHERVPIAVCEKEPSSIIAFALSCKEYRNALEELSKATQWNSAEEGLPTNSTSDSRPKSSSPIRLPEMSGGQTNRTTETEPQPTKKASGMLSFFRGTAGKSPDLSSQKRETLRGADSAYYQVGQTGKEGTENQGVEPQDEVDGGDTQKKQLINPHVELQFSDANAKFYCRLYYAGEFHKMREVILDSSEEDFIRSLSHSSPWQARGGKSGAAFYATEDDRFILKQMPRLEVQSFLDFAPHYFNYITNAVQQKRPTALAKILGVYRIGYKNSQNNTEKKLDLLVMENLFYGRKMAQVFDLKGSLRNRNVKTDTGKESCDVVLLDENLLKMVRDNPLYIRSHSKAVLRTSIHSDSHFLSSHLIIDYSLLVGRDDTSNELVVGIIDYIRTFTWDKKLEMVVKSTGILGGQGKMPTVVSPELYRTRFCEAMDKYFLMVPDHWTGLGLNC
Method in brief: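 N-terminal GST-fused full-length PIKFYVE from baculovirus, incubated with compound, substrate and ATP in 50 mM MOPS, 1 mM DTT, pH7.2 for 1 hour at room temperature. ADP formed detected by ADP-Glo luminescence; IC50 from four-parameter logistic fit of % inhibition.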

U2OS cells = assay: EEA1 assay (endosomal vesicle enlargement as surrogate readout of PIKFyve inhibition); assay type: cell-based; conditions: Homo sapiens, 3 hours of treatment, class symbols
Description: EEA1 Assay. Genetic or pharmacological disruption of PIKfyve activity results in enlargement of endosomal vesicles. This enlargement was utilized as a surrogate readout of PIKFyve inhibition for routine triage of PIKfyve inhibitors. U2OS cells grown in 96-well assay plates were treated with compound diluted in DMEM media containing 10% fetal bovine serum. After 3 hours of treatment, cells were fixed with paraformaldehyde, permeabilized with 0.2% Triton-X in phosphate buffered saline and stained against EEA1. During the secondary antibody staining, cells were also stained with CellMask DeepRed and Hoechst to detect cytoplasms and nuclei respectively. Endosomal structures were visualized using a high content imager at 40× magnification. Images were analyzed using a linear classifier algorithm integrating EEA1 spot size, intensity and texture trained on images of cells treated with the potent reference compound APY0201. Compound activity was calculated by subtracting the DMSO signal and calculating percentage activity relative to maximal APY0201 activity. IC50s were then calculated from concentration vs. % inhibition data by logistic regression.

`Cn1c(-c2ccncc2)nc2c(N3CCOCC3)ncnc21` was tested, and the “FAB1 TDP-43 (active/inactive)” value (FAB1 TDP-43 yeast strain) was “Inactive” and the “PIKfyve TDP-43 (active/inactive)” value [1] was “Inactive”.
For `CN(C)c1cc(N2CCOCC2)n2nc(-c3ccncc3)cc2n1`, the “FAB1 TDP-43 (active/inactive)” value (FAB1 TDP-43 yeast strain) was “Inactive” and the “PIKfyve TDP-43 (active/inactive)” value [1] was “Inactive”.
In the case of `Cc1cccc(/C=N/Nc2cc(N3CCOCC3)n3nc(-c4ccncc4)cc3n2)c1` [APYO201, reference compound], the “viable cells in FAB1 TDP-43” value (FAB1 TDP-43 yeast strain; across a range of compound concentrations (only 0.23 μM is shown), FIG. 5) is reported as “no increase in viable cells” and the “population of propidium iodide-positive dead cells in PIKFYVE TDP-43” value ([1]; 0.23 μM, FIG. 6) is reported as “reduced the population of propidium iodide-positive dead cells”.
Compound `c1ccc(-c2nccc(-c3cc(N4CCOCC4)n4nc(C5CCCO5)cc4n3)n2)cc1` (stereo not drawn) [Compound 97, 4-(5-(2-phenylpyrimidin-4-yl)-2-(tetrahydrofuran-2-yl)pyrazolo[1,5-a]pyrimidin-7-yl)morpholine] has an IC50 [2] of 10 to 100 nM and an IC50 (U2OS cells) of 1000 to 10000 nM.
For `Cn1ccc(-c2cccc(-c3cc(N4CCOCC4)n4nc(-c5ccncc5)cc4n3)c2)n1` [Compound 142, 4-(5-(3-(1-methyl-1H-pyrazol-3-yl)phenyl)-2-(pyridin-4-yl)pyrazolo[1,5-a]pyrimidin-7-yl)morpholine], the IC50 [2] was 10 to 100 nM and the IC50 (U2OS cells) was 1000 to 10000 nM.
In the case of `Cc1cccc(/C=N/Nc2cc(N3CCOCC3)n3nc(-c4ccncc4)cc3n2)c1` [drawing 327], the “FAB1 TDP-43 (active/inactive)” value (FAB1 TDP-43 yeast strain) is reported as “Inactive” and the “PIKfyve TDP-43 (active/inactive)” value [1] is reported as “Active”.
`Cc1cccc(/C=N/Nc2cc(N3CC4CC3CO4)n3nc(-c4ccncc4)cc3n2)c1` (stereo not drawn) [drawing 328] was tested, and the “FAB1 TDP-43 (active/inactive)” value (FAB1 TDP-43 yeast strain) was “Inactive” and the “PIKfyve TDP-43 (active/inactive)” value [1] was “Active”.
For `Cc1cccc(/C=N/Nc2nc(N3CCOCC3)c3nc(-c4ccncc4)n(C)c3n2)c1` [drawing 329], the “FAB1 TDP-43 (active/inactive)” value (FAB1 TDP-43 yeast strain) was “Inactive” and the “PIKfyve TDP-43 (active/inactive)” value [1] was “Active”.
In the case of `N#Cc1cc(N2CCOCC2)n2nc(-c3ccncc3)cc2n1` [drawing 332], the “FAB1 TDP-43 (active/inactive)” value (FAB1 TDP-43 yeast strain) is reported as “Inactive” and the “PIKfyve TDP-43 (active/inactive)” value [1] is reported as “Inactive”.
